Experiments:
[1] = test system: dopaminergic nerve; test: Functional evaluation of dopaminergic nerve: methamphetamine-induced one side cycling movement in 6-OHDA mouse model of Parkinson's disease; type: in vivo; settings: 6-OHDA striatum destruction, counted 10-20 min after methamphetamine 10 mg/kg, no-APA group 86.0±14.1
Procedure: 5-week-old male ddy mice (Japan LLC, Inc.) were divided into the following four groups (9 mice per group) and subjected to a test. Under pentobarbital anesthesia and without craniotomy, a needle of a microsyringe was punctured through the head skin into the striatum of the right brain, and 1 μL of 6-hydroxydopamine (6-OHDA, Sigma Co., 11.5 μg/μL) dissolved in physiological saline containing 0.05% ascorbic acid was injected. • Group 1 (Control) Physiological saline containing only ascorbic acid was injected, whereby the striatum was not damaged. […]
The mouse models of Parkinson's disease of each of the above-mentioned groups were allowed to search freely in a transparent cylindrical container (glass, diameter 9 cm-height 12 cm) for 10 min, methamphetamine (DAINIPPON Pharmaceutical Co., Ltd., 10 mg/kg) was intraperitoneally administered, and the number of cycling in 10-20 min after administration was counted. […]

[2] = test system: GDNF; test: GDNF expression in the brain of normal mouse (EIA); type: in vivo; settings: normal mice, 24 hr after final administration
Procedure: (§1) 5-week-old male ddy mice (Japan LLC, Inc.) were divided into the following three groups (9 mice per group) and subjected to a test. • Group 1 (Control) Phosphate buffered saline (PBS) was intraperitoneally administered to the mice once a day for 7 days. • Group 2 APA (0.75 mg/kg) dissolved in PBS was intraperitoneally administered to the mice once a day for 7 days. • Group 3 APA (7.5 mg/kg) dissolved in PBS was intraperitoneally administered to the mice once a day for 7 days.
(§2) In every group, the mice were decapitated at 24 hr after the final administration and the cerebral cortex and striatum thereof were removed.
(§3) The removed cerebral cortex and striatum were weighed, a homogenizing buffer (0.1M Tris-phosphate buffer (pH 7.4) containing 1M sodium hydrochloride, 2% BSA, 2 mM EDTA, 0.2% sodium azide) supplemented with aprotinin (80 TIU/L) was added in an amount of 19-fold volume of the weight, and the mixture was sonicated 30 times. […]
(§4) The concentration of neurotrophic factor in each sample was measured using EIA according to the method of Furukawa et al. (Journal of Neurochemistry), 40, 734-744 (1983)} in the case of NGF, and using EIA according to the method of Nitta et al. {pp. 463-467 of “Mapping the progress of Alzheimer's and Parkinson's Disease” (2002) edited by Mizuno et al.}, in the case of GDNF. […]

[3] = test system: NGF; test: NGF expression in the brain of normal mouse (EIA); type: in vivo; settings: normal mice, 24 hr after final administration, vs control
Procedure: as §1, §2, §3, §4

[4] = test system: GDNF; test: GDNF expression in the cerebral cortex of mouse model of Parkinson's disease (EIA); type: in vivo; settings: 6-OHDA mouse model
Procedure: (§5) The removed cerebral cortex and striatum were weighed, a homogenizing buffer (0.1M Tris-phosphate buffer (pH 7.4) containing 1M sodium hydrochloride, 2% BSA, 2 mM EDTA, 0.2% sodium azide) supplemented with aprotinin (80 TIU/L) was added in an amount of 19-fold volume of the weight, and the mixture was sonicated 30 times. After centrifugation (100,000 g×30 min) at 4° C., the supernatant was separated and the same amount of chloroform was added. The mixture was thoroughly stirred and centrifuged (20,000 g×10 min). The supernatant was separated and used as a sample for EIA (cryopreserved at −20° C. until use).
(§6) The concentration of neurotrophic factor in each sample was measured using EIA according to the method of Furukawa et al. (Journal of Neurochemistry), 40, 734-744 (1983)} in the case of NGF, and using EIA according to the method of Nitta et al. {pp. 463-467 of “Mapping the progress of Alzheimer's and Parkinson's Disease” (2002) edited by Mizuno et al.}, in the case of GDNF. The obtained values were multiplied by 20 to give a neurotrophic factor content of each brain region.
(§7) 5-week-old male ddy mice (Japan LLC, Inc.) were divided into the following four groups (9 mice per group) and subjected to a test. […]

[5] = test system: NGF; test: NGF expression in the cerebral cortex of mouse model of Parkinson's disease (EIA); type: in vivo; settings: 6-OHDA mouse model
Procedure: as §5, §6, §7

[6] = test system: rats with injured spinal cord; test: Walking ability of rats with spinal injury (BBB scale); type: in vivo, rat; settings: spinal-injured Wistar rats, APA 0.75 mg/kg i.p. once a day
Procedure: 7-week-old male Wistar rats (Japan SMC, Inc.) were divided into the following three groups (12-17 rats per group) and subjected to a test. Pentobarbital sodium (DAINIPPON Pharmaceutical Co., Ltd., 35 mg/kg) was intraperitoneally injected to the rats, median incision was applied to the back, and paraspinal muscle was bluntly detached. After laminectomy of the 12th thoracic vertebra, the left spinal cord was cut at the same position with a sharp cutting tool. After 5 hr from the cutting, the rats confirmed to have anesthetic disorder in the left hind paw were subjected to the following test. • Group 1 PBS was intraperitoneally administered to rats with uninjured spinal cord (sutured without cutting the spinal cord after laminectomy of the 12th thoracic vertebra). • Group 2 PBS was intraperitoneally administered to rats with injured spinal cord. • Group 3 APA (0.75 mg/kg) dissolved in PBS was intraperitoneally administered to rats with injured spinal cord.
In every group, the administration was performed once a day for 20 days from the day of spinal injury. Evaluation method of walking ability of rats with injured spinal cord: The rats were placed in a box (length 1 m×width 1 m×height 30 cm) painted in gray, allowed to search freely, and evaluated in 21 levels according to 21-Point Basso-Besttie-Bresnahan Locomotor Rating Scale (BBB scale).

[7] = Observation of normal mice after 7 consecutive days of intraperitoneal APA; type: in vivo, mouse; settings: normal ddy mice, APA i.p. once a day for 7 days (0.75 or 7.5 mg/kg)
Procedure: as §1

[8] = APA 0.75 mg/kg i.p. once a day for 7 days
[9] = APA 7.5 mg/kg i.p. once a day for 7 days

With `CC(=O)N1CCCC[C@H]1C(=O)O` [APA, N-acetyl-L-pipecolic acid] the “one side cycling movement” value ([1]; APA 0.75 mg/kg i.p. for 7 days) was 40.9±17.3 times, the “one side cycling movement” value ([1]; APA 7.5 mg/kg i.p. for 7 days) was 47.1±13.1 times and the “GDNF expression amount in the striatum, increase as compared to the control” value [2, 8] was 66.0%. For the same compound, the “GDNF expression amount in the cerebral cortex” value ([2]; APA 0.75 or 7.5 mg/kg i.p. once a day for 7 days, vs control) was “no remarkable difference”, the “NGF expression amount in the cerebral cortex” value ([3]; APA 0.75 and 7.5 mg/kg i.p. once a day for 7 days) was “tended to increase in a dose-dependent manner” and the “NGF expression amount in the striatum” value ([3]; APA 0.75 or 7.5 mg/kg i.p. once a day for 7 days) was “did not show remarkable difference from the control”. For the same compound, the “GDNF expression amount in the cerebral cortex, increase” value [4, 8] was 74.9%, the “GDNF expression amount in the cerebral cortex, increase” value [4, 9] was 232.4% and the “NGF expression amount in the cerebral cortex, increase” value [5, 8] was 11.2%. For the same compound, the “NGF expression amount in the cerebral cortex, increase” value [5, 9] was 30.7%, the “level of walking ability (BBB scale)” value ([6]; at day 23, injury-only group plateaued at score 15) was “recovery to almost the same level as before injury” and the “effect of APA administration on walking ability (BBB scale)” value ([6]; first 2 days) was “not observed”. The “level of walking ability (BBB scale)” value ([6]; from day 3) was “showed improvement from day 3” and the “abnormal behavior, alopecia or decrease of body weight as compared to control mice” value [7] was “did not show abnormal behavior, alopecia or decrease of body weight”.
